Results taken from patent publication US20260297016A1, “THERAPEUTIC COMPOUNDS” (REGENTS OF THE UNIVERSITY OF MINNESOTA, priority 2023, published 2026).

Key:
STING = molecular target: T1, STING (Homo sapiens, UniProt Q86WV6, G230A/H232R/R293Q/R71H); test: IRF-Lucia Reporter STING Inhibition Assay (THP-1 Lucia ISG cells); format: cell-based; conditions: 1 μM 2,3-cGAMP, 20 hours
T1 construct: THP-1 Lucia ISG cells (InvivoGen, thpl-isg); host or cells: THP-1 Lucia ISG cells
Procedure: IRF-Lucia Reporter STING Inhibition Assay. […] Cells were incubated at 37° C. in a 5% CO2 atmosphere with varying concentrations of test compound for 1.5 hours, followed by treatment with 1 μM 2,3-cGAMP (InvivoGen, tlrl-nacga23-02) and incubated for 20 hours. A 20 μL aliquot of cell suspension was added to 50 μL. QUANTI-Luc™ reagent (InvivoGen, rep-qlc4lg2), and the resulting luminescence is measured by a GloMax Explorer (Promega) with a 0.1 second read time.

human PPARα = molecular target: T2, human PPARα (Homo sapiens, UniProt Q07869); test: Cell-based Luciferase Assay, human PPARα agonist activity (Indigo Biosciences hPPARα IB00111); conditions: for activation at 0.5 µM: read-out: % PPAR-alpha AGONISM, % at 0.5 μm; for activation at 5 µM: read-out: % PPAR-alpha AGONISM, % at 5 μm; for activation at 50 µM: read-out: % PPAR-alpha AGONISM, % at 50 μm
T2 construct: borders undisclosed
T2 sequence (Q07869 1-468): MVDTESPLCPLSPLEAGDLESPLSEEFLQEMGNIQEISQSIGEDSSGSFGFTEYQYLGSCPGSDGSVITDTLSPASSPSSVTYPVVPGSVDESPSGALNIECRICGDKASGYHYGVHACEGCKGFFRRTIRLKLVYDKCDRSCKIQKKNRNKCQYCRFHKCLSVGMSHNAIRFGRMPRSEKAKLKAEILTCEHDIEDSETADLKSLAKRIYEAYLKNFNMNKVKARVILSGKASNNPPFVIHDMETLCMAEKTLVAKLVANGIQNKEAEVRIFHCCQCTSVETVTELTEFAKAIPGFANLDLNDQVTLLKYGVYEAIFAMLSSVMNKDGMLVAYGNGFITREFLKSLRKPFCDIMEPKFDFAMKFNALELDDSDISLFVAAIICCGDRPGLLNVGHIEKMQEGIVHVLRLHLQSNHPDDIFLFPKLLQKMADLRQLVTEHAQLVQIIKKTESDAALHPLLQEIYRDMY
From the text: Cell-based Luciferase Assay. […] Luminescence was quantified using a GloMax Explorer (Promega).

T1 sequence (Q86WV6 whole entry R71H/G230A/H232R/R293Q): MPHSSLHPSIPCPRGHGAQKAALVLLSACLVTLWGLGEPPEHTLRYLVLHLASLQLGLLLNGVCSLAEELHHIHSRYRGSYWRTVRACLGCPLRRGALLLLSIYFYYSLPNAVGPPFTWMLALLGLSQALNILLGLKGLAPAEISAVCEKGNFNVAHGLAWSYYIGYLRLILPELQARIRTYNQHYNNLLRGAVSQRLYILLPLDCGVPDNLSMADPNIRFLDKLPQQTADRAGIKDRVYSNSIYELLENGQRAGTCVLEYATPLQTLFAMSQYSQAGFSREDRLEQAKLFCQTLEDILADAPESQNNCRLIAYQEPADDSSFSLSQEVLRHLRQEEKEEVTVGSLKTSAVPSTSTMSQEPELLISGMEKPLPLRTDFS

| SMILES | % STING INHIBITION, % at 12.5 μm (STING) | % STING INHIBITION, % at 25 μm (STING) | % STING INHIBITION, % at 50 μm (STING) | activation at 0.5 µM (human PPARα) | activation at 5 µM (human PPARα) | activation at 50 µM (human PPARα) | PPAR-alpha agonism of the positive control (human PPARα; 90 nM) | cytotoxicity of the positive control (human PPARα; 90 nM) |
| --- | --- | --- | --- | --- | --- | --- | --- | --- |
| O=C(O)c1cc(NCc2ccc(-c3ccc(C(F)(F)F)cc3)cc2)ccc1O [Example 32, 2-hydroxy-5-(((4′-(trifluoromethyl)-[1,1′-biphenyl]-4-yl)methyl)amino)benzoic acid] | 28% | 43% | 64% |  |  |  |  |  |
| O=C(O)c1cc(F)cc(NCc2ccc(-c3ccc(Cl)cc3)cc2)c1 [Example 18, 3-(((4′-Chloro-[1,1′-biphenyl]-4-yl)methyl)amino)-5-fluorobenzoic acid] |  |  |  | 38.6% | 80% | 87.8% |  |  |
| O=C(O)c1cccc(NCc2cn(-c3ccc(C(F)(F)F)cc3)nn2)c1 [Example 27, 3-(((1-(4-(trifluoromethyl)phenyl)-1H-1,2,3-triazol-4-yl)methyl)amino)benzoic Acid] |  |  |  | 51.1% | 94.3% | 58.5% |  |  |
| COc1ccc(-c2ccc(CNc3cccc(C(=O)O)c3)cc2)cc1 [Example 3, 3-(((4′-Methoxy-[1,1′-biphenyl]-4-yl)methyl)amino)benzoic acid] |  |  |  | 32.9% | 112% | 98.3% |  |  |
| O=C(O)c1cc(F)cc(NCc2cc(Cl)c(-c3ccc(C(F)(F)F)cc3)c(Cl)c2)c1 [Example 10, 3-(((2,6-Dichloro-4′-(trifluoromethyl)-[1,1′-biphenyl]-4-yl)methyl)amino)-5-fluorobenzoic acid] |  |  |  | 0% | 37.2% | 17.4% |  |  |
| COc1cc(F)ccc1-c1ccc(CNc2ccc(O)c(C(=O)O)c2)cc1 [Example 39, 5-(((4′-Fluoro-2′-methoxy-[1,1′-biphenyl]-4-yl)methyl)amino)-2-hydroxybenzoic acid] | 0% | 0% | 0% |  |  |  |  |  |
| O=C(O)c1cc(F)cc(NCc2ccc(-c3ccccc3)cc2)c1 [Example 8, 3-(([1,1′-Biphenyl]-4-ylmethyl)amino)-5-fluorobenzoic Acid] |  |  |  | 17.6% | 50.3% | 95.2% |  |  |
| N#Cc1ccc(-c2ccc(CNc3cc(F)cc(C(=O)O)c3)cc2)cc1 [Example 14, 3-(((4′-Cyano-[1,1′-biphenyl]-4-yl)methyl)amino)-5-fluorobenzoic Acid] |  |  |  | 7% | 58.7% | 83.8% |  |  |
| O=C(O)c1cc(F)cc(NCc2cnc(-c3ccc(C(F)(F)F)cc3)s2)c1 [Example 24, 3-fluoro-5-(((2-(4-(trifluoromethyl)phenyl)thiazol-5-yl)methyl)amino)benzoic Acid] |  |  |  | 15.7% | 83.3% | 74.9% |  |  |
| Cc1ccc(-c2ccc(CNc3cc(F)cc(C(=O)O)c3)cc2)cc1 [Example 19, 3-Fluoro-5-(((4′-methyl-[1,1′-biphenyl]-4-yl)methyl)amino)benzoic acid] |  |  |  | 40.6% | 101% | 98.9% |  |  |
| O=C(O)c1cc(F)cc(NCc2csc(-c3ccc(F)cc3)n2)c1 [Example 26, 3-fluoro-5-(((2-(4-fluorophenyl)thiazol-4-yl)methyl)amino)benzoic Acid] |  |  |  | 10.6% | 14.2% | 50% |  |  |
| O=C(O)c1cc(O)cc(NCc2ccc(-c3ccc(F)cc3)cc2)c1 [Example 45, 3-(((4′-Fluoro-[1,1′-biphenyl]-4-yl)methyl)amino)-5-hydroxybenzoic acid] | 9% | 50% | 80% |  |  |  |  |  |
| O=C(O)c1cc(F)cc(NCc2ccc(-c3ccc(C4CCCC4)cc3)cc2)c1 [Example 20, 3-(((4′-Cyclopentyl-[1,1′-biphenyl]-4-yl)methyl)amino)-5-fluorobenzoic acid] |  |  |  | 38.2% | 58.5% | 48% |  |  |
| O=C(O)c1cc(F)cc(NCc2cn(-c3ccc(F)cc3)nn2)c1 [Example 30, 3-fluoro-5-(((1-(4-fluorophenyl)-1H-1,2,3-triazol-4-yl)methyl)amino)benzoic Acid] |  |  |  | 9.6% | 19.1% | 48.8% |  |  |
| O=C(O)c1cccc(NCc2ccc(-c3ccc(C(F)(F)F)cc3)cc2)c1F [Example 4, 2-Fluoro-3-(((4′-(trifluoromethyl)-[1,1′-biphenyl]-4-yl)methyl)amino)benzoic acid] |  |  |  | 73.7% | 120% | 20.9% |  |  |
| O=C(O)c1ccc(F)c(NCc2ccc(-c3ccc(C(F)(F)F)cc3)cc2)c1 [Example 7, 4-Fluoro-3-(((4′-(trifluoromethyl)-[1,1′-biphenyl]-4-yl)methyl)amino)benzoic acid] |  |  |  | 6.6% | 98% | 68.1% |  |  |
| Cc1cc(C(F)(F)F)ccc1-c1ccc(CNc2cc(F)cc(C(=O)O)c2)cc1 [Example 13, 3-Fluoro-5-(((2′-methyl-4′-(trifluoromethyl)-[1,1′-biphenyl]-4-yl)methyl)amino)benzoic Acid] |  |  |  | 38.3% | 47.4% | 27.5% |  |  |
| O=C(O)c1cccc(NCc2ccc(-c3ccc(C(F)(F)F)cc3)cc2)c1 [Example 2, 3-(((4′-(Trifluoromethyl)-[1,1′-biphenyl]-4-yl)methyl)amino)benzoic acid] |  |  |  | 74.7% | 103% | 27.4% |  |  |
| O=C(O)c1cc(NCc2ccc(-c3ccc(C(F)(F)F)cc3)cc2)ccc1F [Example 5, 2-Fluoro-5-(((4′-(trifluoromethyl)-[1,1′-biphenyl]-4-yl)methyl)amino)benzoic acid] |  |  |  | 67.4% | 92.5% | 54.4% |  |  |
| COc1ccc(-c2ccc(CNc3cc(F)cc(C(=O)O)c3)cc2)cc1 [Example 16, 3-Fluoro-5-(((4′-methoxy-[1,1′-biphenyl]-4-yl)methyl)amino)benzoic acid] |  |  |  | 38.2% | 106% | 96% |  |  |
| CC(C)(Sc1ccc(CCN(CCCCC2CCCCC2)C(=O)NC2CCCCC2)cc1)C(=O)O [GW7647, reference compound] |  |  |  |  |  |  | full agonism | without signs of cytotoxicity |
| O=C(O)c1cc(F)cc(NCc2cn(-c3ccc(C(F)(F)F)cc3)nn2)c1 [Example 29, 3-fluoro-5-(((1-(4-(trifluoromethyl)phenyl)-1H-1,2,3-triazol-4-yl)methyl)amino)benzoic Acid] |  |  |  | 27% | 139% | 91% |  |  |
| Cc1cc(CNc2cc(F)cc(C(=O)O)c2)ccc1-c1ccc(C(F)(F)F)cc1C [Example 12, 3-(((2,2′-Dimethyl-4′-(trifluoromethyl)-[1,1′-biphenyl]-4-yl)methyl)amino)-5-fluorobenzoic Acid] |  |  |  | 14.1% | 46.3% | 26.5% |  |  |
| O=C(O)c1cc(F)cc(NCc2ccc(-c3ccc(C(F)(F)F)cc3)cc2O)c1 [Example 9, 3-Fluoro-5-(((3-hydroxy-4′-(trifluoromethyl)-[1,1′-biphenyl]-4-yl)methyl)amino)benzoic Acid] |  |  |  | 8% | 49.6% | 46.8% |  |  |
| O=C(O)c1cccc(NCc2cn(-c3ccc(F)cc3)nn2)c1 [Example 28, 3-(((1-(4-fluorophenyl)-1H-1,2,3-triazol-4-yl)methyl)amino)benzoic Acid] |  |  |  | 13.1% | 21.5% | 58.6% |  |  |
| O=C(O)c1cc(F)cc(NCc2csc(-c3ccc(C(F)(F)F)cc3)n2)c1 [Example 25, 3-fluoro-5-(((2-(4-(trifluoromethyl)phenyl)thiazol-4-yl)methyl)amino)benzoic Acid] |  |  |  | 21.7% | 88.7% | 42.4% |  |  |
| O=C(O)c1cccc(NCc2ccc(-c3ccc(F)cc3)cc2)c1 [Example 1, 3-(((4′-Fluoro-[1,1′-biphenyl]-4-yl)methyl)amino)benzoic acid] |  |  |  | 35.6% | 125% | 55.1% |  |  |
| O=C(O)c1cc(F)cc(NCc2ccc(-c3ccc(C(F)(F)F)cc3)cn2)c1 [Example 22, 3-Fluoro-5-(((5-(4-(trifluoromethyl)phenyl)pyridin-2-yl)methyl)amino)benzoic Acid] |  |  |  | 22.1% | 62.2% | 42.1% |  |  |
